Source: patent publication US20170190671A1, “BIS(ARYL)CATECHOL DERIVATIVES AS HERBICIDES” (E I DU PONT DE NEMOURS AND COMPANY, priority 2014, published 2017)

How the values were obtained:
Test in all cases: Test D postemergence
Type in all cases: in vivo
Details in all cases: scale 0 to 100
[1] = test system: Italian ryegrass (Lolium multiflorum)
Description: (§1) Seeds of plant species selected from bluegrass (annual bluegrass, Poa annua), blackgrass (Alopecurus myosuroides), canarygrass (Phalaris minor), chickweed (common chickweed, Stellaria media), cutleaf geranium (Geranium dissectum), galium (catchweed bedstraw, Galium aparine), downy bromegrass (Bromus tectorum), field poppy (Papaver rhoeas), field violet (Viola arvensis), green foxtail (Setaria viridis), deadnettle (henbit deadnettle, Lamium amplexicaule), Italian ryegrass (Lolium multiflorum), kochia (Kochia scoparia), lambsquarters (Chenopodium album), oilseed rape (Brassica napus), pigweed (Amaranthus retroflexus), chamomile (scentless chamomile, Matricaria inodora), Russian thistle (Salsola kali), speedwell (bird's-eye speedwell, Veronica persica), spring barley (Hordeum vulgare), spring wheat (Triticum aestivum), wild buckwheat (Polygonum convolvulus), wild mustard (Sinapis arvensis), wild oat (Avenafatua), wild radish (Raphanus raphanistrum), windgrass (Apera spica-venti), winter barley (Hordeum vulgare), and winter wheat (Triticum aestivum) were planted into a silt loam soil and treated preemergence with test chemicals formulated in a non-phytotoxic solvent mixture which included a surfactant.
(§2) At the same time, these species were planted in pots containing Redi-Earth® planting medium (Scotts Company, 14111 Scottslawn Road, Marysville, Ohio 43041) comprising spaghnum peat moss, vermiculite, wetting agent and starter nutrients and treated with postemergence applications of the test chemicals formulated in the same manner. Plants ranged in height from 2 to 18 cm (1- to 4-leaf stage). Treated plants and controls were maintained in a controlled growth environment for 14 to 21 days after which time all species were compared to controls and visually evaluated. Plant response ratings, summarized in Table D, are based on a scale of 0 to 100 where 0 is no effect and 100 is complete control. A dash (-) response means no test result.

[2] = test system: Russian thistle (Salsola kali)
Description: as §1, §2

[3] = test system: blackgrass (Alopecurus myosuroides)
Description: as §1, §2

[4] = test system: bluegrass (annual bluegrass, Poa annua)
Description: as §1, §2

[5] = test system: canarygrass (Phalaris minor)
Description: as §1, §2

[6] = test system: chamomile (scentless chamomile, Matricaria inodora)
Description: as §1, §2

[7] = test system: chickweed (common chickweed, Stellaria media)
Description: as §1, §2

[8] = test system: deadnettle (henbit deadnettle, Lamium amplexicaule)
Description: as §1, §2

[9] = test system: downy bromegrass (Bromus tectorum)
Description: as §1, §2

[10] = test system: field violet (Viola arvensis)
Description: as §1, §2

[11] = test system: galium (catchweed bedstraw, Galium aparine)
Description: as §1, §2

[12] = test system: green foxtail (Setaria viridis)
Description: as §1, §2

kochia (Kochia scoparia) = test system: kochia (Kochia scoparia)
Description: as §1, §2

[13] = test system: pigweed (Amaranthus retroflexus)
Description: as §1, §2

[14] = test system: speedwell (bird's-eye speedwell, Veronica persica)
Description: as §1, §2

[15] = test system: wild buckwheat (Polygonum convolvulus)
Description: as §1, §2

[16] = test system: wild mustard (Sinapis arvensis)
Description: as §1, §2

[17] = test system: wild radish (Raphanus raphanistrum)
Description: as §1, §2

[18] = test system: winter barley (Hordeum vulgare)
Description: as §1, §2

[19] = test system: winter wheat (Triticum aestivum)
Description: as §1, §2

Fc1cccc(Oc2ncc(C(F)(F)F)cn2)c1Oc1ncc(Cl)cn1 [Compound 42, 5-chloro-2-[2-fluoro-6-[[5-(trifluoromethyl)-2-pyrimidinyl]oxy]phenoxy]pyrimidine]
Plant response rating, Ryegrass, Italian ([1]; 16 g ai/ha): 20
Plant response rating, Ryegrass, Italian ([1]; 31 g ai/ha): 50
Plant response rating, Ryegrass, Italian ([1]; 62 g ai/ha): 60
Plant response rating, Ryegrass, Italian ([1]; 125 g ai/ha): 65
Plant response rating, Russian Thistle ([2]; 16 g ai/ha): 10
Plant response rating, Russian Thistle ([2]; 31 g ai/ha): 10
Plant response rating, Russian Thistle ([2]; 62 g ai/ha): 25
Plant response rating, Russian Thistle ([2]; 125 g ai/ha): 70
Plant response rating, Blackgrass ([3]; 16 g ai/ha): 20
Plant response rating, Blackgrass ([3]; 31 g ai/ha): 55
Plant response rating, Blackgrass ([3]; 62 g ai/ha): 60
Plant response rating, Blackgrass ([3]; 125 g ai/ha): 75
Plant response rating, Bluegrass ([4]; 16 g ai/ha): 50
Plant response rating, Bluegrass ([4]; 31 g ai/ha): 50
Plant response rating, Bluegrass ([4]; 62 g ai/ha): 60
Plant response rating, Bluegrass ([4]; 125 g ai/ha): 70
Plant response rating, Canarygrass ([5]; 16 g ai/ha): 35
Plant response rating, Canarygrass ([5]; 31 g ai/ha): 65
Plant response rating, Canarygrass ([5]; 62 g ai/ha): 70
Plant response rating, Canarygrass ([5]; 125 g ai/ha): 75
Plant response rating, Chamomile ([6]; 16 g ai/ha): 0
Plant response rating, Chamomile ([6]; 31 g ai/ha): 0
Plant response rating, Chamomile ([6]; 62 g ai/ha): 5
Plant response rating, Chamomile ([6]; 125 g ai/ha): 15
Plant response rating, Chickweed ([7]; 16 g ai/ha): 65
Plant response rating, Chickweed ([7]; 31 g ai/ha): 65
Plant response rating, Chickweed ([7]; 62 g ai/ha): 85
Plant response rating, Chickweed ([7]; 125 g ai/ha): 90
Plant response rating, Deadnettle ([8]; 16 g ai/ha): 35
Plant response rating, Deadnettle ([8]; 31 g ai/ha): 40
Plant response rating, Deadnettle ([8]; 62 g ai/ha): 60
Plant response rating, Deadnettle ([8]; 125 g ai/ha): 75
Plant response rating, Bromegrass, Downy ([9]; 16 g ai/ha): 30
Plant response rating, Bromegrass, Downy ([9]; 31 g ai/ha): 35
Plant response rating, Bromegrass, Downy ([9]; 62 g ai/ha): 40
Plant response rating, Bromegrass, Downy ([9]; 125 g ai/ha): 60
Plant response rating, Field Violet ([10]; 16 g ai/ha): 65
Plant response rating, Field Violet ([10]; 31 g ai/ha): 65
Plant response rating, Field Violet ([10]; 62 g ai/ha): 90
Plant response rating, Field Violet ([10]; 125 g ai/ha): 95
Plant response rating, Galium ([11]; 16 g ai/ha): 70
Plant response rating, Galium ([11]; 31 g ai/ha): 85
Plant response rating, Galium ([11]; 62 g ai/ha): 90
Plant response rating, Galium ([11]; 125 g ai/ha): 100
Plant response rating, Foxtail, Green ([12]; 16 g ai/ha): 10
Plant response rating, Foxtail, Green ([12]; 31 g ai/ha): 15
Plant response rating, Foxtail, Green ([12]; 62 g ai/ha): 60
Plant response rating, Foxtail, Green ([12]; 125 g ai/ha): 70
Plant response rating, Kochia (kochia (Kochia scoparia); 16 g ai/ha): 85
Plant response rating, Kochia (kochia (Kochia scoparia); 31 g ai/ha): 100
Plant response rating, Kochia (kochia (Kochia scoparia); 62 g ai/ha): 100
Plant response rating, Kochia (kochia (Kochia scoparia); 125 g ai/ha): 100
Plant response rating, Pigweed ([13]; 16 g ai/ha): 100
Plant response rating, Pigweed ([13]; 31 g ai/ha): 100
Plant response rating, Pigweed ([13]; 62 g ai/ha): 100
Plant response rating, Pigweed ([13]; 125 g ai/ha): 100
Plant response rating, Speedwell ([14]; 16 g ai/ha): 40
Plant response rating, Speedwell ([14]; 31 g ai/ha): 50
Plant response rating, Speedwell ([14]; 62 g ai/ha): 80
Plant response rating, Speedwell ([14]; 125 g ai/ha): 80
Plant response rating, Buckwheat, Wild ([15]; 16 g ai/ha): 75
Plant response rating, Buckwheat, Wild ([15]; 31 g ai/ha): 80
Plant response rating, Buckwheat, Wild ([15]; 62 g ai/ha): 95
Plant response rating, Buckwheat, Wild ([15]; 125 g ai/ha): 100
Plant response rating, Mustard, Wild ([16]; 16 g ai/ha): 70
Plant response rating, Mustard, Wild ([16]; 31 g ai/ha): 70
Plant response rating, Mustard, Wild ([16]; 62 g ai/ha): 100
Plant response rating, Mustard, Wild ([16]; 125 g ai/ha): 100
Plant response rating, Radish, Wild ([17]; 16 g ai/ha): 80
Plant response rating, Radish, Wild ([17]; 31 g ai/ha): 75
Plant response rating, Radish, Wild ([17]; 62 g ai/ha): 85
Plant response rating, Radish, Wild ([17]; 125 g ai/ha): 90
Plant response rating, Barley, Winter ([18]; 16 g ai/ha): 5
Plant response rating, Barley, Winter ([18]; 31 g ai/ha): 5
Plant response rating, Barley, Winter ([18]; 62 g ai/ha): 10
Plant response rating, Barley, Winter ([18]; 125 g ai/ha): 15
Plant response rating, Wheat, Winter ([19]; 16 g ai/ha): 0
Plant response rating, Wheat, Winter ([19]; 31 g ai/ha): 5
Plant response rating, Wheat, Winter ([19]; 62 g ai/ha): 10
Plant response rating, Wheat, Winter ([19]; 125 g ai/ha): 20
